Earlier results, collected in patent publication US4818687A (priority 1985, dated 1989).

System: human liver cancer

In the case of COc1cc2c(c3oc(=O)c4c(c13)CCC4=O)[C@@H]1C=CO[C@@H]1O2 [aflatoxin B1], the “association with human liver cancer” value is listed as “statistically associated with increased incidence of human liver cancer”.
